We go through eleven compounds from patent US20240425464A1, “Substituted Monohydrazides as Potent Antifungal Agents” (University of Kentucky Research Foundation, priority 2023, published 2024).

Converted amounts (≈) assume the structure as drawn. Read-outs that look alike come from different tables or passages of the source.

What all share (type): cell-based, Candida albicans
Test [1] concerns C. albicans ATCC MYA-2310 (E). Briefly: MIC determination by in vitro antifungal assay. Conditions: strain E = C. albicans ATCC MYA-2310. The method in brief:
(§1)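 Twofold dilutions spanning 0.06–31.3 μg/mL were incubated with fungi for 48 h at 35° C in MOPS-buffered RPMI 1640 (pH 7.0), following modified CLSI M27-A3 and M38-A2 methods. Yeast cells were grown overnight in YPD, set to OD600 0.12 (~1×10^6 CFU/mL), then diluted 1:100.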

In test [2] the test system is C. albicans ATCC MYA-2876 (C). The experiment in a line: MIC determination by in vitro antifungal assay. As to conditions: strain C = C. albicans ATCC MYA-2876(S). The method in brief:
as §1

Test [3] relates to C. albicans ATCC MYA-1237 (F). The experiment in a line: MIC determination by in vitro antifungal assay. Conditions: strain F = C. albicans ATCC MYA-1237(R). In short, it runs like this: as §1
In test [4] the test system is C. albicans ATCC 90819 (D). The experiment in a line: MIC determination by in vitro antifungal assay. The method in brief:
as §1

The subject of test [5] is C. albicans ATCC MYA-1003 (G). The experiment in a line: MIC determination by in vitro antifungal assay. Conditions: strain G = C. albicans ATCC MYA-1063(R) (footnote), MYA-1003 in text. In short, it runs like this:
as §1

Test [6] has as its system C. albicans ATCC 64124 (B). Briefly: MIC determination by in vitro antifungal assay. In short, it runs like this: as §1
For test [7], the system named is C. albicans ATCC 10231 (strain A). The experiment in a line: MIC determination by in vitro antifungal assay (CLSI broth dilution). Conditions: strain A = C. albicans ATCC 10231, no visible growth, 48 h at 35° C. In short, it runs like this:
as §1

Where [8] appears, read: Candida albicans, read-out: MIC.
The mark [9] stands for this setting: Candida albicans, ATCC90819, strain D = C. albicans ATCC 90819(R), read-out: MIC.
[10] abbreviates: Candida albicans, ATCC64124, strain B = C. albicans ATCC 64124, read-out: MIC.
Where [11] appears, read: Candida albicans, ATCC10231, 48 h, read-out: MIC.
Where [12] appears, read: strain D = C. albicans ATCC 90819(R).
[13] abbreviates: strain B = C. albicans ATCC 64124.

For `O=C(NNc1ccc(F)cc1)c1cccc(F)n1` [Compound 5d], the MIC in test [1] (setting [8]) is 3.9 µg/mL (≈ 15.6 µM); in test [2] (setting [8]), 1.95 µg/mL (≈ 7.82 µM); in test [3] (setting [8]), 1.95 µg/mL (≈ 7.82 µM); in test [4] (setting [9]) it was 1.95 µg/mL (≈ 7.82 µM); in test [5] (setting [8]), 0.98 µg/mL (≈ 3.93 µM); in test [6] (setting [10]) it was 0.98 µg/mL (≈ 3.93 µM). Moreover, the MIC in test [7] (setting [11]) came to 0.24 µg/mL (≈ 0.963 µM).

Consider `O=C(NNc1ccc(Cl)cc1)c1cccc(F)n1` [Compound 5e], for which the MIC worked out at 1.95 μg/mL^−1 in test [1]; 1.95 μg/mL^−1 in test [2]; 0.98 μg/mL^−1 in test [3]; 3.9 μg/mL^−1 in test [4] (setting [12]); 0.98 μg/mL^−1 in test [5]; 1.95 μg/mL^−1 in test [6] (setting [13]). In test [7], this compound gave an MIC of 1.95 μg/mL^−1.

On to `COc1ccc(NNC(=O)c2cccc(F)n2)cc1` [Compound 5f], for which the MIC came out at 0.98 µg/mL (≈ 3.75 µM) in test [1] (setting [8]); 0.98 µg/mL (≈ 3.75 µM) in test [2] (setting [8]); 0.98 µg/mL (≈ 3.75 µM) in test [3] (setting [8]); 1.95 µg/mL (≈ 7.46 µM) in test [4] (setting [9]); 0.98 µg/mL (≈ 3.75 µM) in test [5] (setting [8]); 1.95 µg/mL (≈ 7.46 µM) in test [6] (setting [10]). In addition, in test [7] (setting [11]), the MIC stood at 0.24 µg/mL (≈ 0.919 µM).

For `O=C(NNc1ccc(F)cc1F)c1cccc(F)n1` [Compound 5g], the MIC in test [1] (setting [8]) stood at 1.95 µg/mL (≈ 7.3 µM); in test [2] (setting [8]), 1.95 µg/mL (≈ 7.3 µM); in test [3] (setting [8]) it was 1.95 µg/mL (≈ 7.3 µM); in test [4] (setting [9]), 3.9 µg/mL (≈ 14.6 µM); in test [5] (setting [8]) it was 0.98 µg/mL (≈ 3.67 µM); in test [6] (setting [10]), 1.95 µg/mL (≈ 7.3 µM). Also, the MIC in test [7] (setting [11]) was found to be 0.98 µg/mL (≈ 3.67 µM).

As to `O=C(NNc1cccc(F)c1)c1cccc(Br)n1` [Compound 6a], the MIC in test [1] came out at 3.9 μg/mL^−1; in test [2], 1.95 μg/mL^−1; in test [3], 3.9 μg/mL^−1; in test [4] (setting [12]), 7.8 μg/mL^−1; in test [5] it was 3.9 μg/mL^−1; in test [6] (setting [13]), 1.95 μg/mL^−1. Besides, the MIC in test [7] is 0.49 μg/mL^−1.

In the case of `O=C(NNc1ccc(F)cc1)c1cccc(Br)n1` [Compound 6d], the MIC in test [1] (setting [8]) was 3.9 µg/mL (≈ 12.6 µM); in test [2] (setting [8]), 3.9 µg/mL (≈ 12.6 µM); in test [3] (setting [8]), 3.9 µg/mL (≈ 12.6 µM); in test [4] (setting [9]), 3.9 µg/mL (≈ 12.6 µM); in test [5] (setting [8]), 1.95 µg/mL (≈ 6.29 µM); in test [6] (setting [10]), 1.95 µg/mL (≈ 6.29 µM). Also, the MIC in test [7] (setting [11]) amounted to 0.98 µg/mL (≈ 3.16 µM).

For `COc1ccc(NNC(=O)c2cccc(Br)n2)cc1` [Compound 6f], the MIC in test [1] (setting [8]) stood at 3.9 µg/mL (≈ 12.1 µM); in test [2] (setting [8]) it was 1.95 µg/mL (≈ 6.05 µM); in test [3] (setting [8]), 0.98 µg/mL (≈ 3.04 µM); in test [4] (setting [9]) it was 3.9 µg/mL (≈ 12.1 µM); in test [5] (setting [8]), 3.9 µg/mL (≈ 12.1 µM); in test [6] (setting [10]), 3.9 µg/mL (≈ 12.1 µM). In addition, in test [7] (setting [11]), the MIC was 1.95 µg/mL (≈ 6.05 µM).

As for `O=C(NNc1cccc(F)c1)c1ncc(F)cc1F` [Compound 7a], the MIC in test [1] was 1.95 μg/mL^−1; in test [2], 1.95 μg/mL^−1; in test [3] it was 3.9 μg/mL^−1; in test [4] (setting [12]), 3.9 μg/mL^−1; in test [5], 1.95 μg/mL^−1; in test [6] (setting [13]), 0.98 μg/mL^−1. In test [7], this compound displayed an MIC of 0.24 μg/mL^−1.

Consider `COc1cccc(NNC(=O)c2ncc(F)cc2F)c1` [Compound 7c], for which the MIC in test [1] (setting [8]) was found to be 3.9 µg/mL (≈ 14 µM); in test [2] (setting [8]), 3.9 µg/mL (≈ 14 µM); in test [3] (setting [8]), 3.9 µg/mL (≈ 14 µM); in test [4] (setting [9]), 7.8 µg/mL (≈ 27.9 µM); in test [5] (setting [8]), 1.95 µg/mL (≈ 6.98 µM); in test [6] (setting [10]), 1.95 µg/mL (≈ 6.98 µM). Also, the MIC in test [7] (setting [11]) is 0.98 µg/mL (≈ 3.51 µM).

As for `O=C(NNc1ccc(F)cc1)c1ncc(F)cc1F` [Compound 7d], the MIC in test [1] (setting [8]) was 3.9 µg/mL (≈ 14.6 µM); in test [2] (setting [8]), 1.95 µg/mL (≈ 7.3 µM); in test [3] (setting [8]), 1.95 µg/mL (≈ 7.3 µM); in test [4] (setting [9]), 1.95 µg/mL (≈ 7.3 µM); in test [5] (setting [8]) it was 0.98 µg/mL (≈ 3.67 µM); in test [6] (setting [10]) it was 1.95 µg/mL (≈ 7.3 µM). The MIC in test [7] (setting [11]) came out at 0.98 µg/mL (≈ 3.67 µM).

With `O=C(NNc1ccc(Cl)cc1)c1ncc(F)cc1F` [Compound 7e], the MIC worked out at 1.95 μg/mL^−1 in test [1]; 3.9 μg/mL^−1 in test [2]; 0.49 μg/mL^−1 in test [3]; 7.8 μg/mL^−1 in test [4] (setting [12]); 1.95 μg/mL^−1 in test [5]; 3.9 μg/mL^−1 in test [6] (setting [13]). Besides, the MIC in test [7] is 3.9 μg/mL^−1.
